Read-outs that look alike come from different tables or passages of the source.
Assays:
in vitro = in vitro ADME, rat or human serum; settings: serum, half-life of peptide in serum as detected by HPLC analysis; read-out: HPLC Peptide in Serum t ½ (converted)
Experimental: For these serum stability experiments, peptides were prepared by solid phase peptide sythesis and purified to 94% or greater purity as described in Example 1. Blood was collected from metaphane anesthesized rats by aortic bleed into Vacutainer™ tubes and allowed to clot at room temperature for approximately 30 minutes, then centrifuged at 3000 rpm (about 1000×g) for 10 minutes at room temperature and the serum aspirated. In addition, frozen human serum (North American Biologics, Inc., Miami, Fla., cat. no. 2140, lot no. 94115) was thawed at room temperature and filtered through a 0.45 μm membrane before use.
A 1 mg/mL solution of an exemplary XMP peptide to be tested was added to an equal volume of either rat or human serum described above and maintained at 37° C. At 0, 1, 2, and 4 hours, 100 μL were removed and processed by solid phase extraction for HPLC analysis as follows. Serum samples were prepared for HPLC using C-18 Sep-Pak cartridges (1 mL cartridge with 100 mg of sorbent, Waters Corp., Milford, Mass.). One hundred μL of serum sample were added to an equal volume of 1% TFA and mixed for 30 seconds on a Vortex mixer. The sample was then applied to a C-18 Sep-Pak cartridge that had been conditioned by washing with 1 mL of methanol followed by 1 mL Milli-Q water. Weakly reed components were eluted by washing with 1 mL of 0. 1% TFA. The bound peptide was eluted with two volumes of 250 μL 80% acetonitrile/0.065% TFA.
The material eluted from the Sep-Pak cartridge was analyzed on a Michrom Ultaafast Microprotein Analyzer equipped with a 150 mm×1 mm, 5μ particle, 300 Å pore C-8 Zorbax column. The column oven was set to 40° C., the flow rate was 100 μL/minute, and injection volumes were typically 5-10 μL. HPLC was performed using 5% acetonitrile/0.1% TFA in water as mobile phase A, and 80% acetonitrile/0.065% TFA as mobile phase B. The eluate was monitored spectiophotometrically at 214 nm. Peptide standards were dissolved in mobile phase A at 0. 1 mg/mL. The gradient was 25-35% B/10 minutes followed by a 5 minute wash step of 100% B and reequilibration at 25% B for 10 minutes.

[1] = system: Trychophyton rubrum ATCC 28188; test: organism not typed; format: cell-based
Experimental: The anti-fungal activity of Domain III derived peptides was evaluated against a variety of fungal species, including species of Candida. Cryptococcus, Fusarium, Trichophyton, and Aspergillus, by an additional assay protocol utilizing Alamar Blue. Alamar Blue is an indicator dye formulated to measure quantitatively the proliferation of a variety of human or animal cells, bacteria, or fungi. It consists of an oxidation-reduction (REDOX) indicator that yields a colorimetric change in response to metabolic activity. For these experiments, species of Candida and Cryptococcus were grown in Sabouraud's dextrose broth (SDB) overnight. Strains of filamentous fungi (Aspergilius, Fusanum, Trichophyton) were obtained by irrigation of a confluent culture from a petri dish. Cells were washed and adjusted to a concentration of 5.0×10^3/mL in fresh SDB. […] Controls included amphotericin B, fluconazole, ketoconazole and griseofulvin. Antifungal drugs were also diluted in the same manner. Assays were performed in 96-well microuiter plates. […] The wells to be plated were determined by OD590 readings. The lowest concentration of peptide which maintained the blue color (or OD reading) of the blank was chosen along with the next two higher concentrations. Plates were allowed to grow for 18-48 hours depending on the rate of growth of each fungus. Minimal fungicidal activity (MFC) was determined as a 99.9% killing of the starting inoculum.

[2] = system: C. albicans (SLU-1 and other strains); format: cell-based, Candida albicans
Experimental: In additional experiments, a fluorescence-activated cell sorter (FACS) based assay was developed to test the fungicidal activity of the peptides. […] Difco) agar. Several colonies were picked from the agar plate and inoculated into 5 mL of Sabouraud's Dextrose media in a sterile 10 mL polypropylene tube. The fungal cultures were incubated for about 18 hours at 30° C. […] The culture were centrifuged at 3000 rpm for 5 minutes (Sorvall RT 6000B). After centrifugation, the supernatant was decanted leaving the fungal pellets in the centrifuge tubes. The pellets were resuspended in 15 mL of SDB. Both suspensions were combined into one tube and mixed to generate a stock culture. […] After determining the concentration of the stock, appropriate dilutions were made with Sabouraud's Dextrose media to obtain 100 mL of 1×10^6 cell/mL. […] After the 1 hour incubation, all the tubes were centrifuged at 3000 rpm for 5 minutes. […] Louis, Mo.) in Dulbecco's PBS (DPBS, GIBCO, Grand Island, N.Y.) except the autofluorescence control, which was resuspended in DPBS alone. The tubes were mixed and incubated in the dark at room temperature for at least 20 minutes. […] The settings were adjusted appropriately to the following approximate parameters: Cells were analyzed (10,000 cells/tube) and their respective fluorescence determined. […] The population of dead (i.e., propidium iodide stained) fungal cells was determined by a fluorescence threshold between the negative control and positive control.

Candida albicans SLU-1 = test: Survival of cyclosporin A-immunosuppressed mice systemically infected with Candida albicans; format: in vivo, mouse; settings: cyclosporin A 10 mg/kg i.p.; 2×10^5 Candida cells; peptide 10 mg/kg, 6 doses; FIG. 7
Experimental: Studies were also performed to determine the effectiveness of representative anti-fungal peptides in cyclosporin A-immunosuppressed mice systemically infected with Candida albicans SLU-1. Groups (15 animals/group) of 9 week-old male DBA/2J mice were immunosuppressed by pretreatment with 10 mg/kg (Day-1) of cyclosporin A administered by intraperitoneal injection. One day later (Day 0), the mice were inoculated with 2×10^5 Candida cells by intravenous injection in the tail vein. Immediately after fungal challenge, the mice were treated with a 0.1 mL volume of 10 mg/kg XMP.284, 10 mg/kg XMP.127, or PBS as a control. Cyclosporin A injections were repeated at Day 1. Day 3. Day 7, and Day 9. XMP.284, XMP.127 or PBS injections were repeated at Day 2, Day 4, Day 6, Day 8 and Day 10. […]. […] However.

| Compound | half-life at 0.5 mg/mL (in vitro) [min] | Minimum Fungicidal Concentration, Trychophyton rubrum ATCC 28188 ([1]; ATCC 28188) [µg/mL] | Activity on various strains of C. albicans, IC50, 10231 ([2]; SLU-1 and other strains) [µg/mL] | Activity on various strains of C. albicans, IC50, 14053 ([2]; SLU-1 and other strains) [µg/mL] | Activity on various strains of C. albicans, IC50, 26555 ([2]; SLU-1 and other strains) [µg/mL] | Activity on various strains of C. albicans, IC50, 90028 ([2]; SLU-1 and other strains) [µg/mL] | Activity on various strains of C. albicans, IC50, SLU#1 ([2]; SLU-1 and other strains) [µg/mL] | protection against infection, survival compared with PBS controls (Candida albicans SLU-1) | Minimum Fungicidal Concentration, Trychophyton rubrum ATCC 28188 [1] [µg/mL] | Activity of peptides on C. albicans SLU-1, IC50 ([2]; Table 5, percentage of dead cells, 1 hour, 30° C.) [µg/mL] |
| --- | --- | --- | --- | --- | --- | --- | --- | --- | --- | --- |
| H-KSKVGWLIQLFHKK-NH2 [XMP.13] | 150 | – | – | – | – | – | – | – | – | – |
| H-SKVKWLIQLFHKK-NH2 [XMP.284] | 252 | 5.0 | 1.86 | 0.50 | 0.59 | 1.08 | 0.31 | provided protection | – | – |
| C[C@@H]1[C@H](O)[C@@H](C)/C=C/C=C/C=C/C=C/C=C/C=C/C=C/[C@H](O[C@@H]2O[C@H](C)[C@@H](O)[C@H](N)[C@@H]2O)C[C@@H]2O[C@](O)(C[C@@H](O)C[C@@H](O)[C@H](O)CC[C@@H](O)C[C@@H](O)CC(=O)O[C@H]1C)C[C@H](O)[C@H]2C(=O)O [Amphotericin B, amphotericin B, reference compound] | – | – | – | – | – | – | – | protected | 0.32 | 79.36 |
